# Data from patent US10246469B2, “Biaryl kinase inhibitors” (BRISTOL-MYERS SQUIBB COMPANY, priority 2015, dated 2019).
# pIC50: −log10 of the molar value.
# Biological target: T1, GST-Xa-hAAK1 (Homo sapiens, UniProt Q2M2I8)
# T1 construct: GST (N); Factor Xa cleavage site (Xa) (internal); made in house
# Assay: AAK1 Kinase Assay
# Format: biochemical
# Conditions: bacterially expressed GST-Xa-hAAK1 3.5 nM; ATP 22 μM; fluoresceinated peptide 1.5 μM; 3 hours at room temperature; Caliper LabChip 3000
# Protocol: The assays were performed in U-bottom 384-well plates. The final assay volume was 30 μl prepared from 15 μl additions of enzyme and substrates (fluoresceinated peptide (5-FAM)-Aha-[…]-NH2 and ATP) and test compounds in assay buffer (10 mM Tris-HCL pH 7.4, 10 mM MgCl2, 0.01% Tween-20 and 1.0 mM DTT). The reactions were initiated by the combination of bacterially expressed, GST-Xa-hAAK1 with substrates and test compounds. The reactions were incubated at room temperature for 3 hours and terminated by adding 60 μl of 35 mM EDTA buffer to each sample. The reactions were analyzed on the Caliper LabChip 3000 (Caliper, Hopkinton, Mass.) by electrophoretic separation of the fluorescent substrate and phosphorylated product. […] The final concentration of reagents in the assays are ATP, 22 μM; (5-FAM)-Aha-[…]-NH2, 1.5 μM; GST-Xa-hAAK1, 3.5 nM; and DMSO, 1.6%. […] Compounds were dissolved at 10 mM in dimethylsulfoxide (DMSO) and evaluated at eleven concentrations. IC50 values were derived by non-linear regression analysis.
# T1 sequence (Q2M2I8 whole entry): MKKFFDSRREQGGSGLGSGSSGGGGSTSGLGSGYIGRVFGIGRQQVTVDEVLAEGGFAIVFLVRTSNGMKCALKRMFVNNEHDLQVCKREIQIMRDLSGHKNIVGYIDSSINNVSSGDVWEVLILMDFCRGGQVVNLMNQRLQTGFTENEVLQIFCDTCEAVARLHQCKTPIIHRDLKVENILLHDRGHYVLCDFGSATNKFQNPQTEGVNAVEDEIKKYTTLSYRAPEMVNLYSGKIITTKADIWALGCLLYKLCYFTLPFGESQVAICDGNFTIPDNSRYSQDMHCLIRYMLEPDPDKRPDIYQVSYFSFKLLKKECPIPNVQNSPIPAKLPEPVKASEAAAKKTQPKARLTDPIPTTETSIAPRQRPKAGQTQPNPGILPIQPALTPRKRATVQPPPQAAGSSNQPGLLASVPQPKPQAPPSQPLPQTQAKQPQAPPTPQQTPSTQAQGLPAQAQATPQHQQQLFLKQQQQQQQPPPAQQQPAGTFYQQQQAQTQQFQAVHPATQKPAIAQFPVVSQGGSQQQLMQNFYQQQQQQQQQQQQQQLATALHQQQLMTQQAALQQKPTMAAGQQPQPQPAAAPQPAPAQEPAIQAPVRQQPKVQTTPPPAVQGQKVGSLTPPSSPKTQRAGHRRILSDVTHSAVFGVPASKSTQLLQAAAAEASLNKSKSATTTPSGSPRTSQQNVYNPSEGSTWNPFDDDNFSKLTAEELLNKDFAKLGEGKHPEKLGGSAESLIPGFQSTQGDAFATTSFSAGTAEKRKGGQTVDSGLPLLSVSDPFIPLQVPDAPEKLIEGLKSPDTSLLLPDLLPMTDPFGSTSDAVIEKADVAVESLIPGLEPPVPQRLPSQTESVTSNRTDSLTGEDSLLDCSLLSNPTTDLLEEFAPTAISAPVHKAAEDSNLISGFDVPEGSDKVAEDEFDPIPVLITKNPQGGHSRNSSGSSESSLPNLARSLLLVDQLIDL
row,pIC50,SMILES
1,8.74,"Cc1cn2nccc(-c3ccc(OC[C@@](C)(N)CC(C)C)c(C#N)c3)c2n1 [Example 492, (S)-2-((2-amino-2,4-dimethylpentyl)oxy)-5-(2-methylimidazo[1,2-b]pyridazin-8-yl)benzonitrile]"
2,7.21,"CC(C)C[C@](C)(N)COc1ccc(-c2cnc3cccnn23)cc1Cl [Example 503, (S)-1-(2-chloro-4-(imidazo [1,2-b]pyridazin-3-yl)phenoxy)-2,4-dimethylpentan-2-amine]"
3,8.19,"CC(C)C[C@](C)(N)COc1ccc(-c2ccnc(Nc3ccc4c(c3)OCO4)c2)cc1C(F)(F)F [Example 412, (S)-4-(4-((2-amino-2,4-dimethylpentyl)oxy)-3-(trifluoromethyl)phenyl)-N-(benzo[d][1,3]dioxol-5-yl) pyridin-2-amine]"
4,9.30,"CC(=O)NCC(=O)Nc1cc(-c2ccc(OC[C@@](C)(N)CC(C)C)c(C(F)(F)F)c2)ccn1 [Example 402, (S)-2-acetamido-N-(4-(4-((2-amino-2,4-dimethylpentyl)oxy)-3-(trifluoromethyl)phenyl)pyridin-2-yl)acetamide]"
5,9.40,"CC(C)C[C@](C)(N)COc1ccc(-c2ncnc3[nH]ccc23)cc1C(F)(F)F [Example 363, (S)-1-(4-(7H-pyrrolo[2,3-d]pyrimidin-4-yl)-2-(trifluoromethyl)phenoxy)-2,4-dimethylpentan-2-amine]"
6,7.01,"CC(C)C[C@](C)(N)COc1ccc(-c2ncnc3c2ccn3C)cc1F [Example 365, (S)-1-(2-fluoro-4-(7-methyl-7H-pyrrolo [2,3-d]pyrimidin-4-yl)phenoxy)-2,4-dimethylpentan-2-amine]"
7,6.67,"CC(C)C[C@](C)(N)COc1ccc(-c2ccnc3ccnn23)c2scnc12 [Example 341, (S)-2,4-dimethyl-1-((7-(pyrazolo[1,5-a]pyrimidin-7-yl)benzo[d]thiazol-4-yl)oxy)pentan-2-amine]"
8,9.00,"CC(C)C[C@](C)(N)COc1ccc(-c2ncnc3[nH]ccc23)cc1C#N [Example 362, (S)-2-((2-amino-2,4-dimethylpentyl)oxy)-5-(7H-pyrrolo[2,3-d]pyrimidin-4-yl)benzonitrile]"
9,6.80,"CC(C)C[C@](C)(N)COc1ccc(-c2cc(N)nc3ccnn23)cc1F [Example 457, (S)-7-(4-((2-amino-2,4-dimethylpentyl)oxy)-3-fluorophenyl)pyrazolo[1,5-a]pyrimidin-5-amine]"
10,9.30,"CC(C)C[C@](C)(N)COc1ccc(-c2ccnc(NC(=O)C3CCC3)c2)cc1C(F)(F)F [Example 390, (S)—N-(4-(4-((2-amino-2,4-dimethylpentyl)oxy)-3-(trifluoromethyl)phenyl)pyridin-2-yl)cyclobutanecarboxamide]"
11,9.22,"CC(C)C[C@](C)(N)COc1ccc(-c2ccnc3[nH]ncc23)cc1Cl [Example 284, (S)-1-(2-chloro-4-(1H-pyrazolo[3,4-b]pyridin-4-yl)phenoxy)-2,4-dimethylpentan-2-amine]"
12,6.90,"CC(C)C[C@](C)(N)COc1ccc(-c2ccnc(NC3CCCOC3)c2)cc1C(F)(F)F (single isomer, unassigned) [Example 476]"
13,5.94,"CCN1Cc2nccc(-c3ccc(OC[C@@](C)(N)CC(C)C)c(F)c3)c2C1=O [Example 419, (S)-4-(4-((2-amino-2,4-dimethylpentyl)oxy)-3-fluorophenyl)-6-ethyl-6,7-dihydro-5H-pyrrolo [3,4-b]pyridin-5-one]"
14,7.46,"CC(C)C[C@](C)(N)COc1ccc(-c2ccnc(NC3CCCOC3)c2)cc1Cl (mixture of isomers) [Example 338, 4-(4-(((S)-2-amino-2,4-dimethylpentyl)oxy)-3-chlorophenyl)-N-(tetrahydro-2H-pyran-3-yl)pyridin-2-amine]"
15,7.96,"Cc1cn2nccc(-c3ccc(OC[C@@](C)(N)CC(C)C)c(C)n3)c2n1 [Example 452, (S)-2,4-dimethyl-1-((2-methyl-6-(2-methylimidazo[1,2-b]pyridazin-8-yl)pyridin-3-yl)oxy)pentan-2-amine]"
16,7.41,"Cc1nccc(-c2ccc(OC[C@@](C)(N)CC(C)C)c3ncsc23)n1 [Example 342, (S)-2,4-dimethyl-1-((7-(2-methylpyrimidin-4-yl)benzo[d]thiazol-4-yl)oxy)pentan-2-amine]"
17,7.17,"Cc1cc(-c2ccnc3c2C(=O)N(C)C3)ccc1OC[C@@](C)(N)CC(C)C [Example 430, (S)-4-(4-((2-amino-2,4-dimethylpentyl)oxy)-3-methylphenyl)-6-methyl-6,7-dihydro-5H-pyrrolo[3,4-b]pyridin-5-one]"
18,6.53,"CC(C)C[C@](C)(N)COc1ccc(-c2cc(Cl)nn3cc(C4CC4)nc23)cc1C(F)(F)F [Example 496, (S)-1-(4-(6-chloro-2-cyclopropylimidazo [1,2-b]pyridazin-8-yl)-2-(trifluoromethyl)phenoxy)-2,4-dimethylpentan-2-amine]"
19,7.30,"CC(C)C[C@](C)(N)COc1ccc(-c2ccnc(NC3CCCOC3)c2)cc1C(F)(F)F (single isomer, unassigned) [Example 477]"
20,7.77,"CC(C)C[C@](C)(N)COc1ccc(-c2ccnc(NC3CCCOC3)c2)cc1Cl (single isomer, unassigned) [Example 339]"
21,9.70,"CC(C)C[C@](C)(N)COc1ccc(-c2ccnc(Nc3nccs3)n2)cc1C(F)(F)F [Example 371, (S)—N-(4-(4-((2-amino-2,4-dimethylpentyl)oxy)-3-(trifluoromethyl)phenyl)pyrimidin-2-yl)thiazol-2-amine]"
22,8.96,"CC(C)C[C@](C)(N)COc1ccc(-c2ccnc3cc[nH]c23)cc1F [Example 420, (S)-1-(2-fluoro-4-(1H-pyrrolo[3,2-b]pyridin-7-yl)phenoxy)-2,4-dimethylpentan-2-amine]"
23,9.05,"CC(C)C[C@](C)(N)COc1ccc(-c2ccnc3ccnn23)nc1CF [Example 276, (S)-1-((2-(fluoromethyl)-6-(pyrazolo[1,5-a]pyrimidin-7-yl)pyridin-3-yl)oxy)-2,4-dimethylpentan-2-amine]"
24,6.41,"CC(C)C[C@](C)(N)COc1ccc(-c2cc(NC3CCCOC3)ncn2)cc1C(F)(F)F (stereo partly drawn) [Example 358, 6-(4-(((S)-2-amino-2,4-dimethylpentyl)oxy)-3-(trifluoromethyl)phenyl)-N-(tetrahydro-2H-pyran-3-yl)pyrimidin-4-amine]"
25,6.92,"Cc1nc2c(-c3ccc(OC[C@@](C)(N)CC(C)C)c(C)c3)ccnc2[nH]1 [Example 294, (S)-2,4-dimethyl-1-(2-methyl-4-(2-methyl-3H-imidazo[4,5-b]pyridin-7-yl)phenoxy)pentan-2-amine]"
26,7.22,"CC(C)C[C@](C)(N)COc1ccc(-c2ncnc3c2ccn3C)cc1C(F)(F)F [Example 366, (S)-2,4-dimethyl-1-(4-(7-methyl-7H-pyrrolo[2,3-d]pyrimidin-4-yl)-2-(trifluoromethyl)phenoxy)pentan-2-amine]"
27,8.40,"Cc1nc(-c2ccnc3ccnn23)ccc1OC[C@@](C)(N)CC(C)C [Example 488, (S)-2,4-dimethyl-1-((2-methyl-6-(pyrazolo[1,5-a]pyrimidin-7-yl)pyridin-3-yl)oxy)pentan-2-amine]"
28,6.55,"Cc1nc2nccc(-c3ccc(OC[C@@](C)(N)CC(C)C)c(C#N)c3)c2nc1C [Example 252, (S)-2-((2-amino-2,4-dimethylpentyl)oxy)-5-(2,3-dimethylpyrido[2,3-b]pyrazin-8-yl)benzonitrile]"
